We go through 13 compounds from patent US9867376B2, “Herbicidal compositions comprising N-tetrazol-5-yl)- or N-(triazol-5-yl)arylcarboxamides” (priority 2012, dated 2018).

Common to all, as to type: in vivo
One assay concerns Avena fatua. Put plainly: Greenhouse trial, post-emergence, visual herbicidal effect. The settings on record: Table 5-01, greenhouse, alone, 2 g of a.i./ha. How it is done:
(§1) The weed seeds were sown in pots (diameter 8 cm) with sandy loam soil and germinated under optimum conditions. The herbides were applied by the post-emergence method onto the pots with the cultures, at a spray volume of 300 I/ha. The herbicides were applied on their own and in combination. The trial was conducted in a greenhouse under optimum growth conditions. The herbicidal effects were assessed visually by comparison of untreated and treated plants. The percentages mean: 0%=no effects, 100%=the plants die off completely). The percentages are used to calculate interactions between individual treatments and combination treatment according to S. R. Colby, Weeds 15, pages 20 to 22 (1967).
(§2) The abbreviations denote: • a.i.=active ingredient • E^C=expected value according to Colby (E^C=A+B−A×B100) • Δ=difference (%) of the measured value to the expected value (%) (measured value minus expected value)
(§3) Evaluation: • measured value E is greater than E^C:→synergism (+Δ) • measured value E equals E^C:→additive effect • measured value E is smaller than E^C:→antagonism (−Δ)

Another assay deals with Phalaris minor. Described as above. The note with it: Table 5-03, greenhouse, alone, 2 g of a.i./ha. The procedure:
as §1, §2, §3

Another assay has as its system Viola tricolor. The assay is described as above. The settings on record: Table 5-02, greenhouse, alone, 2 g of a.i./ha. The procedure:
as §1, §2, §3

For a further assay, the system named is Galium aparine. In words: Field trial, post-emergence, visual scoring. The note with it: alone. How it is done: (§4) The tests were conducted outdoors (plot trials, 10 m^2 per plot, 2 repetitions, spray application with 200-300 liters of water per hectare). Crops and broad-leaved weeds/weed grasses were sown under customary field conditions. In addition, a natural weed flora also appeared. Application was by the post-emergence method. The application rates of the herbicidally active compounds applied on their own or in combinations are likewise shown in the tables below. Evaluations were by visual scoring (using a 0-100% scale) after application by comparison of treated and untreated test variants.
as §2, §3

In another assay the test system is Abutilon theophrasti. Put plainly: Field trial, post-emergence, visual scoring. The note with it: Table 5-17, field, alone. The procedure:
as §4, §2, §3

For the next assay, the system named is Cassia obtusifolia. Put plainly: Field trial, post-emergence, visual scoring. The settings on record: alone. The procedure: as §4, §2, §3
In a further assay the test system is Portulaca oleracea. In words: Field trial, post-emergence, visual scoring. The settings on record: alone. How it is done: as §4, §2, §3
The test system of a further assay is Setaria viridis. In words: Field trial, post-emergence, visual scoring. The settings on record: alone. How it is done:
as §4, §2, §3

For the next assay, the system named is Sida spinosa. In words: Field trial, post-emergence, visual scoring. The settings on record: alone, 10 g of a.i./ha. How it is done:
as §4, §2, §3

A further assay concerns Bidens pilosa. In words: Greenhouse trial, post-emergence, visual herbicidal effect. The note with it: alone. How it is done:
as §1, §2, §3

Another assay relates to Brachiaria platyphylla. The assay is described as above. How it is done:
as §1, §2, §3

Another assay relates to Amaranthus retroflexus. Put plainly: Field trial, post-emergence, visual scoring. The settings on record: Table 5-48, field, alone. The procedure:
as §4, §2, §3

In the next assay the test system is Ambrosia artemisiifolia. Put plainly: Greenhouse trial, post-emergence, visual herbicidal effect. The note with it: Table 5-52, greenhouse, alone, 4 g of a.i./ha. How it is done:
as §1, §2, §3

A further assay deals with Lolium multiflorum. Put plainly: Field trial, post-emergence, visual scoring. The note with it: alone. How it is done: as §4, §2, §3
For another assay, the system named is Polygunum convolvulus. In words: Field trial, post-emergence, visual scoring. The settings on record: Table 5-53, field, alone. The procedure: as §4, §2, §3
The subject of another assay is Polygonum convolvulus. Put plainly: Greenhouse trial, post-emergence, visual herbicidal effect. The settings on record: Table 5-78, greenhouse, alone, 4 g of a.i./ha. The procedure:
as §1, §2, §3

The subject of a further assay is Xanthium strumarium. The assay is described as above. The settings on record: Table 5-77, greenhouse, alone, 4 g of a.i./ha. The procedure: as §1, §2, §3
Another assay concerns Veronica hederifolia. In words: Field trial, post-emergence, visual scoring. The settings on record: alone. How it is done: as §4, §2, §3
Assay [1] relates to broad-leaved weeds/weed grasses. In words: Field trial, post-emergence, visual scoring (species not listed above). How it is done:
as §4, §2, §3

Another assay deals with Echinochloa crus-galli. Put plainly: Greenhouse trial, post-emergence, visual herbicidal effect. The settings on record: Greenhouse; dosage 3 g of a.i./ha; Table 5-115. The procedure:
as §1, §2, §3

For the next assay, the system named is Euphorbia heterophylla. Put plainly: Field trial, post-emergence, visual scoring. How it is done:
as §4, §2, §3

A further assay concerns Centaurea cyanis. Put plainly: Field trial, post-emergence, visual scoring. The note with it: Table 5-59, field, alone, 240 g of a.i./ha. How it is done: as §4, §2, §3

SMILES strings stand for the structures.

As for `Cn1nnnc1NC(=O)c1ccc(C(F)(F)F)cc1S(C)(=O)=O` [A1-2], the “Activity [%] against Avena fatua” value in the assay on Avena fatua came out at 0%. The “Activity [%] against Phalaris minor” value with Phalaris minor is reported as 0%. Moreover, the “Activity [%] against Viola tricolor” value with Viola tricolor is on record as 60%. The “Activity [%] against Galium aparine” value with Galium aparine (Table 5-04, field, 25 g of a.i./ha) is 70%.

On to `CCCn1nnnc1NC(=O)c1ccc(C(F)(F)F)c(S(C)(=O)=O)c1C` [A1-9], for which the “Activity [%] against Abutilon theophrasti” value in the assay on Abutilon theophrasti (20 g of a.i./ha) is reported as 78%. The “Activity [%] against Cassia obtusifolia” value turned out to be 0% with Cassia obtusifolia (Table 5-12, field, 20 g of a.i./ha); 0% with Cassia obtusifolia (Table 5-24, field, 20 g of a.i./ha); 65% in the assay on Cassia obtusifolia (Table 5-25, field, 25 g of a.i./ha). Moreover, the “Activity [%] against Portulaca oleracea” value with Portulaca oleracea (Table 5-13, field, 20 g of a.i./ha) is recorded as 43%; in the assay with Portulaca oleracea (Table 5-14, field, 20 g of a.i./ha), 43%; in the assay with Portulaca oleracea (Table 5-15, field, 20 g of a.i./ha), 43%; in the assay with Portulaca oleracea (Table 5-16, field, 20 g of a.i./ha) it was 43%; in the assay with Portulaca oleracea (Table 5-18, field, 20 g of a.i./ha), 43%; in the assay with Portulaca oleracea (Table 5-19, field, 20 g of a.i./ha), 43%. Further, the “Activity [%] against Portulaca oleracea” value in the assay with Portulaca oleracea (Table 5-20, field, 20 g of a.i./ha) is 43%; with Portulaca oleracea (Table 5-22, field, 10 g of a.i./ha), 38%. The “Activity [%] against Setaria viridis” value with Setaria viridis (Table 5-23, field, 10 g of a.i./ha) was found to be 15%; in the assay on Setaria viridis (Table 5-26, field, 25 g of a.i./ha), 7%. Also, the “Activity [%] against Sida spinosa” value in the assay on Sida spinosa (Table 5-10, field) worked out at 60%; in the assay on Sida spinosa (Table 5-11, field), 60%; in the assay on Sida spinosa (Table 5-21, field), 60%.

Regarding `CCc1c(C(=O)Nc2nnnn2C)ccc(Cl)c1SC` [A1-36], the “Activity [%] against Bidens pilosa” value is on record as 45% in the assay with Bidens pilosa (Table 5-46, greenhouse, 2 g of a.i./ha) and 30% in the assay on Bidens pilosa (Table 5-47, greenhouse, 4 g of a.i./ha). Also, the “Activity [%] against Brachiaria platyphylla” value with Brachiaria platyphylla (Table 5-45, greenhouse, alone, 2 g of a.i./ha) is 25%. The “Activity [%] against Amaranthus retroflexus” value with Amaranthus retroflexus (50 g of a.i./ha) is 0%.

Take `Cc1ccc(C(=O)Nc2nnnn2C)c(Cl)c1S(C)(=O)=O` [A1-49]: the “Activity [%] against Ambrosia artemisiifolia” value in the assay with Ambrosia artemisiifolia is given as 80%. In the assay on Lolium multiflorum (Table 5-54, field, 25 g of a.i./ha), the “Activity [%] against Lolium multiflorum” value is on record as 40%. Besides, the “Activity [%] against Polygunum convolvulus” value in the assay on Polygunum convolvulus (25 g of a.i./ha) is 35%.

On to `COc1c(S(C)(=O)=O)ccc(C(=O)Nc2nnnn2C)c1Cl` [A1-67], for which the “Activity [%] against Polygonum convolvulus” value with Polygonum convolvulus is 10%. Besides, the “Activity [%] against Xanthium strumarium” value in the assay with Xanthium strumarium is listed as 0%. In the assay with Setaria viridis (Table 5-80, field, 25 g of a.i./ha), the “Activity [%] against Setaria viridis” value is reported as 65%. The “Activity [%] against Veronica hederifolia” value in the assay on Veronica hederifolia (Table 5-79, field, 25 g of a.i./ha) is listed as 75%.

With `COCc1nc(C(F)(F)F)ccc1C(=O)Nc1nnnn1C` [A4-2], in the assay on Brachiaria platyphylla (Greenhouse, dosage 1 g of a.i./ha, Table 5-113), the “Activity [%] against Brachiaria platyphylla” value is on record as 0%. Moreover, the “Activity [%] against Stellaria media” value in assay [1] (dosage 25 g of a.i./ha, Table 5-114) was 63%.

Turning to `Cn1nnnc1NC(=O)c1ccc(C(F)(F)F)nc1Cl` [A4-7], the “Activity [%] against Echinochloa crus-galli” value in the assay on Echinochloa crus-galli is recorded as 50%. Moreover, the “Activity [%] against Stellaria media” value in assay [1] (dosage 25 g of a.i./ha, Table 5-116) was 60%.

On to `Cc1cc(Cl)ccc1OCC(=O)O` [MCPA], for which the “Activity [%] against Galium aparine” value in the assay with Galium aparine (Table 5-61, field, 280 g of a.i./ha) was determined as 0%. Moreover, in the assay on Lolium multiflorum (Table 5-54, field, 280 g of a.i./ha), the “Activity [%] against Lolium multiflorum” value came out at 0%. Besides, the “Activity [%] against Setaria viridis” value in the assay on Setaria viridis (Table 5-26, field, 280 g of a.i./ha) is 0%; with Setaria viridis (Table 5-80, field, 280 g of a.i./ha), 0%.

For `CCNc1nc(Cl)nc(NC(C)C)n1` [atrazine], the “Activity [%] against Amaranthus retroflexus” value with Amaranthus retroflexus (560 g of a.i./ha) was determined as 60%. Further, the “Activity [%] against Euphorbia heterophylla” value came to 55% with Euphorbia heterophylla (Field, dosage 1000 g of a.i./ha); 49% in the assay with Euphorbia heterophylla (Table 5-51, field, alone, 1000 g of a.i./ha); 49% with Euphorbia heterophylla (Table 5-63, field, alone, 1000 g of a.i./ha); 49% with Euphorbia heterophylla (Table 5-85, field, alone, 1000 g of a.i./ha). Besides, in the assay with Portulaca oleracea (Table 5-13, field, 250 g of a.i./ha), the “Activity [%] against Portulaca oleracea” value is reported as 25%.

Regarding `N#Cc1cc(Br)c(O)c(Br)c1` [bromoxynil], the “Activity [%] against Cassia obtusifolia” value in the assay on Cassia obtusifolia (Table 5-25, field, 210 g of a.i./ha) is listed as 10%. Moreover, the “Activity [%] against Galium aparine” value was 13% in the assay on Galium aparine (Table 5-04, field, 210 g of a.i./ha); 13% in the assay on Galium aparine (Table 5-62, field, 210 g of a.i./ha); 25% with Galium aparine (Table 5-92, field, 210 g of a.i./ha). Moreover, the “Activity [%] against Polygunum convolvulus” value in the assay with Polygunum convolvulus (210 g of a.i./ha) was found to be 30%. In addition, the “Activity [%] against Veronica hederifolia” value was 5% in the assay on Veronica hederifolia (Table 5-66, field, 210 g of a.i./ha); 5% with Veronica hederifolia (Table 5-74, field, 210 g of a.i./ha); 0% in the assay with Veronica hederifolia (Table 5-76, field, 210 g of a.i./ha); 5% in the assay on Veronica hederifolia (Table 5-79, field, 210 g of a.i./ha). The “Activity [%] against Stellaria media” value was 10% in assay [1] (dosage 210 g of a.i./ha, Table 5-114) and 5% in assay [1] (dosage 210 g of a.i./ha, Table 5-116).

Turning to `O=C(Nc1ccc(F)cc1F)c1cccnc1Oc1cccc(C(F)(F)F)c1` [diflufenican], the “Activity [%] against Lolium multiflorum” value in the assay with Lolium multiflorum (Table 5-58, field, 120 g of a.i./ha) was found to be 10%.

For `COC[C@H](C)N(C(=O)CCl)c1c(C)csc1C` [dimethenamide-P], the “Activity [%] against Abutilon theophrasti” value in the assay on Abutilon theophrasti (500 g of a.i./ha) is 25%.

As to `CC(C)N(C(=O)COc1nnc(C(F)(F)F)s1)c1ccc(F)cc1` [flufenacet], in the assay with Centaurea cyanis, the “Activity [%] against Centaurea cyanis” value came out at 0%.
